# Test results from patent publication US8796415B2, “Inhibitors of guanine exchange factors and their use as anticancer drugs” (Centre National de la Recherche Scientifique, priority 2009, dated 2014).
# “Also recorded” adds a separate entry of the source. Ends that are not written are not given here.
# Assays:
# Tgat = test: FRET fluorescence nucleotide exchange kinetics assay, Tgat/RhoA; format: biochemical; conditions: for Ki / inhibition of Tgat GEF activity in kinetics fluorescence assay: RhoA 1 μM, Tgat 0.5 μM; for Ki: GST-TRIP peptides up to 100 μM, read-out: apparent inhibition constant (Kiapp) towards Tgat; for inhibition of Tgat GEF activity in kinetics fluorescence assay: increasing GST-TRIP peptide concentrations up to 100 μM; for efficiency at inhibiting the exchange activity of Tgat relative to TRIPα: from Kiapp values
# Procedure: FIG. 4 represents the inhibition of Tgat GEF activity by TRIPT16M/L17S (SEQ ID NO: 41) and TRIPE32G (SEQ ID NO: 40) in vitro. FRET fluorescence exchange assays were performed using constant concentrations of RhoA (1 μM), equal amounts (0.5 μM) of Tgat (left panel) or Trio DH2 (right panel), and increasing concentrations of GST-TRIP peptides, up to 100 μM. Results were expressed as kobs values plotted as a function of the indicated TRIP inhibitor concentration.
# FIG. 5 represents a histogram showing the apparent inhibition constants (Ki app) of the TRIP peptides for Tgat and Trio DH2, as indicated. The values and error bars are calculated from at least three independent experiments. Error bars represent standard deviation
# Specific exchange rates of Tgat were measured with a fluorescence-based kinetics assay, using a 6His-RhoA construct (gift of Dr Derewenda, Charlottesville University, Virginia) purified as described (Oleksy et al., 2004). Exchange activities were followed by fluorescence resonance energy transfer (FRET) between the GTPase tryptophanes (λex=292 nm) and the methylanthranyloil group of mant-GTP (λem=440 nm) as described (Zeeh et al., 2006). All fluorescence measurements were performed with a CARY Eclipse fluorimeter (Varian). For each kobs determination, RhoA (1 μM) and Tgat (or Trio DH2) were preincubated 3 min at 25° C. in 700 μL reaction buffer (50 mM Tris pH 7.5, 50 mM NaCl, 2 mM MgCl2, 1 mM DTT). The exchange reaction was initiated by 10 μM mant-GTP and measured for 10 min until the plateau was reached. kobs were calculated by fitting the FRET fluorescence changes to a single exponential, using the Kaleidagraph software. Specific exchange activities were calculated by linear regression of kobs values determined for a range of GEF concentrations (0, 0.2, 0.3, 0.4, 0.5 and 1 μM).
# Radioactive [3H]-GDP dissociation assays were performed as described (Schmidt et al., 2002). Briefly, 0.15 μM GST-Trio DH2-PH2 was preincubated for 15 min with 3 μM of GST-TRIP inhibitors. The reaction was started by addition of 0.4 μM [3H]-GDP-loaded RhoA and 1 mM GTP, and the reaction mix was filtered after 0 min and 15 min incubation at 25° C. Inhibition efficiency is expressed as the ratio between [3H]-GDP-bound RhoA at 15 and 0 min. Apparent inhibition constants (Kiapp) of TRIP-like peptides were determined from kobs values obtained at increasing peptide concentrations using the above fluorescence nucleotide exchange assay. Kiapp was calculated from the hyperbolic fit of kobs values as a function of the inhibitor concentration as described (Zeeh et al., 2006). TRIP-like peptide specificity was assayed using mant-GTP fluorescence kinetics (λex=360 nm, λem=460 nm) in a FLX800 Microplate Fluorescence Reader (BioTek Instruments). 0.5 μM Tgat, p63RhoGEF, Lbc, and p115RhoGEF, or 0.1 μM Dbl and Trio DH1-PH1 were preincubated 5 min at 25° C. in the presence of 20 μM GST, GST-TRIPE32G or TRIPT16M/L17S and 1 μM mant-GTP. The exchange reaction was initiated by addition of 1 μM RhoA or RhoG and monitored for 10 min.
# Lbc = target: T1, Lbc (Homo sapiens, UniProt Q12802); test: mant-GTP fluorescence kinetics specificity assay, RhoA/Lbc; format: biochemical; conditions: peptide 20 μM, 0.5 μM GEF, 1 μM RhoA
# T1 construct: GST-Dbl (DH-PH domain), GST-Lbc (DH-PH), GST-p63RhoGEF (DH domain) and GST-RhoG were purified as described previously; GST (N); made in house
# T1 sequence (Q12802 1994-2333): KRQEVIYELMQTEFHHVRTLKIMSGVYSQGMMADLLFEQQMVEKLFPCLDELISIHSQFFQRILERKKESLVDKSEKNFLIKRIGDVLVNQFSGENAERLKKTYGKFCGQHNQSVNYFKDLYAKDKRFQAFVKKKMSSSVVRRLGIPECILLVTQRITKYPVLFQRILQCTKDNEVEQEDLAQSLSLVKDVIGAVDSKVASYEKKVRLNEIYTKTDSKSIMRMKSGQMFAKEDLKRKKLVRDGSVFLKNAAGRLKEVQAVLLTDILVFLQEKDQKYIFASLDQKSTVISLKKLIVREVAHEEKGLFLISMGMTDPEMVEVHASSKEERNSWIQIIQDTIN
# Procedure: (§1) Figures represent the comparison of TRIPE32G and TRIPT16M/L17S inhibition efficiency on different GTPase/RhoGEF systems, using 1 μM GTPase and 0.5 μM GEF as follows:
# (§2) In each assay, the peptides were used at a concentration of 20 μM, corresponding to a 40 fold molar excess of inhibitor versus GEF. All fluorescence kinetics assays were performed using 1 μM mant-GTP. Results are expressed as Relative Fluorescence Units (RFU) versus time. The reaction performed in the absence of GEF reflects the spontaneous exchange activity of the GTPase.
# (§3) Radioactive [3H]-GDP dissociation assays were performed as described (Schmidt et al., 2002). […] Inhibition efficiency is expressed as the ratio between [3H]-GDP-bound RhoA at 15 and 0 min. Apparent inhibition constants (Kiapp) of TRIP-like peptides were determined from kobs values obtained at increasing peptide concentrations using the above fluorescence nucleotide exchange assay. Kiapp was calculated from the hyperbolic fit of kobs values as a function of the inhibitor concentration as described (Zeeh et al., 2006). TRIP-like peptide specificity was assayed using mant-GTP fluorescence kinetics (λex=360 nm, λem=460 nm) in a FLX800 Microplate Fluorescence Reader (BioTek Instruments). […] The exchange reaction was initiated by addition of 1 μM RhoA or RhoG and monitored for 10 min.
# [1] = test system: Tgat-mediated RhoA activation; test: RhoA activation assay (GST-RBD pull-down) in NIH3T3 cells stably expressing Tgat; format: cell-based; conditions: NIH3T3-Tgat cells transfected with GFP-tagged peptide
# Procedure: The RhoA activation in NIH3T3-Tgat cells stably transfected with GFP, GFP-TRIPE32G or GFPTRIP T16M/L17S was assayed by the GST-RBD-pulldown assay as described in FIG. 2A.
# The level of GTP-bound RhoA was measured by a GST pulldown assay as described (Schmidt et al., 2002). Briefly, cell lysates were incubated with glutathione beads coated with the recombinant Rho-binding domain (RBD) of the RhoA specific effector Rhotekin (Cytoskeleton Inc.).
# Dbl = test: mant-GTP fluorescence kinetics specificity assay, RhoA/Dbl; format: biochemical; conditions: peptide 20 μM, 1 μM RhoA
# Procedure: as §1, §2, §3
# Dbl, sequence (P10911 495-809 limits assumed): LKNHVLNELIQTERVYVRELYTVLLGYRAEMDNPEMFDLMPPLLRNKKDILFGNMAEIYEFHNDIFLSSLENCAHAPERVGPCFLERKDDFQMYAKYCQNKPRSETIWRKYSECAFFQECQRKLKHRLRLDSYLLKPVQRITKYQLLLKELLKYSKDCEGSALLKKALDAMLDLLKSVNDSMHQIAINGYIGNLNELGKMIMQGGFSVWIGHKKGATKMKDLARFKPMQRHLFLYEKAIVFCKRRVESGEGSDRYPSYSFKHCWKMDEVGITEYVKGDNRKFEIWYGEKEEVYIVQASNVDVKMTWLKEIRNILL
Ki (Tgat),effect on exchange activity of Lbc/RhoA (Lbc),Substance,inhibition of Tgat GEF activity in kinetics fluorescence assay (Tgat),inhibition of Tgat GEF activity in kinetics fluorescence assay (Tgat; listed as GST-TRIPα),inhibition of Tgat-mediated activation of RhoA in cells [1],effect on exchange activity of Dbl/RhoA (Dbl),efficiency relative to TRIPα (Tgat GEF activity) (Tgat),efficiency at inhibiting the exchange activity of Tgat relative to TRIPα (Tgat)
89 ± 33 µM,–,AREGADGAICGYNLATLVMLGPSERVFCPLCEPCSSDIYELM [TRIPα],rather ineffective,no effect,–,–,–,–
7.4 ± 5 µM,no effect,GST-TRIPE32G (AREGADGAICGYNLATLVMLGPSERVFCPLCGPCSSDIYELM; cysteine pairing not given here; also: GST fusion),inhibited Tgat GEF activity in a dose-dependent manner; also recorded: low micromolar range,–,more efficient than TRIPT16M/L17S,no effect,15 fold,about 15 times
5.1 ± 4 µM,no effect,GST-TRIPT16M/L17S,inhibited Tgat GEF activity in a dose-dependent manner; also recorded: low micromolar range,–,TRIPE32G was more efficient than TRIPT16M/L17S,no effect,15 fold,about 15 times
